Measured values from ChEMBL document CHEMBL4689842, “EUbOPEN Chemogenomics Library wave 1” (2021).

How the values were obtained:
Format in all cases: toxicity, cell-based
Fibroblast = test: Incucyte cell viability with human fibroblast; settings: 10 µM, compound concentration 10 uM
HEK-293T = test: Incucyte cell viability with HEK293T; settings: human, 10 µM, compound concentration 10 uM
U2OS = test: Incucyte cell viability with U2OS; settings: human, 10 µM, compound concentration 10 uM
[1] = 0 h, replicate number 1, timepoint 0 hours
[2] = 0 h, replicate number 2, timepoint 0 hours
[3] = 6 h, replicate number 2, timepoint 6 hours
[4] = 12 h, replicate number 2, timepoint 12 hours
[5] = 18 h, replicate number 2, timepoint 18 hours
[6] = 24 h, replicate number 1, timepoint 24 hours
[7] = 6 h, replicate number 1, timepoint 6 hours
[8] = 12 h, replicate number 1, timepoint 12 hours
[9] = 18 h, replicate number 1, timepoint 18 hours
[10] = 24 h, replicate number 2, timepoint 24 hours
Further: filed as whole numbers so only -1 and 0 and 1 occur.

Row | SMILES | Growth Rate (Fibroblast; [1]) | Growth Rate (Fibroblast; [3]) | Growth Rate (Fibroblast; [5]) | Growth Rate (Fibroblast; [6]) | Growth Rate (HEK-293T; [1]) | Growth Rate (HEK-293T; [2]) | Growth Rate (HEK-293T; [7]) | Growth Rate (HEK-293T; [3]) | Growth Rate (HEK-293T; [8]) | Growth Rate (HEK-293T; [9]) | Growth Rate (HEK-293T; [6]) | Growth Rate (U2OS; [1]) | Growth Rate (U2OS; [3]) | Growth Rate (U2OS; [8]) | Growth Rate (U2OS; [4]) | Growth Rate (U2OS; [9]) | Growth Rate (U2OS; [6]) | Growth Rate (Fibroblast; [7]) | Growth Rate (Fibroblast; [8]) | Growth Rate (Fibroblast; [9]) | other results
1 | COc1ccc(S(=O)(=O)c2cc(OC)ccc2S(=O)(=O)c2ccc([C@H](C)NS(C)(=O)=O)cc2)cc1 | 0 | 0 | 1 | 1 | 1 | 0 | 0 | 1 | 1 | 1 | 1 | 0 | 0 | 0 | 1 | 1 | 1 |  |  |  | Growth Rate (Fibroblast; [2]): 1; Growth Rate (Fibroblast; [4]): 1; Growth Rate (U2OS; [5]): 0; Growth Rate (U2OS; [10]): 0
2 | O=S1(=O)c2cccc3cccc(c23)N1CCCN1CCN(c2ccc(F)cc2)CC1 [FANANSERIN] | 0 | 0 | 0 | 1 |  | 0 | 0 |  | 0 | 0 | 0 |  |  | 1 |  | 1 | 1 | 1 | 0 | 1 | Growth Rate (Fibroblast; [10]): 0; Growth Rate (U2OS; [2]): 0
3 | O=C([O-])c1cc2ccccc2c(Cc2c(O)c(C(=O)[O-])cc3ccccc23)c1O.[Na+].[Na+] | 0 |  |  | 1 | 0 |  | 1 |  | 1 | 1 | 1 | 0 | 1 | 0 | 1 | 0 | 0 | 1 | 1 | 1 | Growth Rate (U2OS; [10]): 1
4 | O=C(O)C1CN(Cc2ccc(-c3nc4cc(Cc5ccccc5F)ccc4s3)c(F)c2)C1 | 0 | 0 |  | 1 | 1 | 0 | 0 |  | 0 | 0 | 0 | 0 | 0 | 1 | 0 | 0 | 1 | 1 | 1 | 1 | Growth Rate (U2OS; [5]): 1; Growth Rate (U2OS; [10]): 0
5 | O=C(Cc1ccccc1)Nc1nc2ccc(Cl)cc2c2nc(-c3ccco3)nn12 | 0 | 0 | 1 | 0 | 1 | 0 | 0 | 1 | 0 | 0 | 0 | 0 | 0 | 1 | 0 | 1 | 1 |  | 0 | 0 | Growth Rate (Fibroblast; [2]): 1; Growth Rate (Fibroblast; [4]): 1; Growth Rate (Fibroblast; [10]): 1; Growth Rate (U2OS; [5]): 0; Growth Rate (U2OS; [10]): 0
6 | CO[C@@H](C)c1c(Nc2ccc([C@H](N(C)C(=O)C3CCS(=O)(=O)CC3)C(F)(F)F)cc2)cnc2cc(Cl)nn12 [NVS-MALT1] |  | 1 | 1 | 0 | 0 | 1 |  | 0 | 0 | 0 | 0 | 0 | 1 | 1 | 0 | 1 | 1 | 0 | 0 | 0 | Growth Rate (Fibroblast; [2]): 0; Growth Rate (Fibroblast; [4]): 1; Growth Rate (Fibroblast; [10]): 1; Growth Rate (U2OS; [7]): 0
7 | C[C@H](N)COC(=O)[C@@H](CCCCN)NC(=O)Cc1c(-c2ccc3ccccc3c2)[nH]c2c1ccc1ccccc12 | 0 |  |  | 0 | 0 |  | 1 | 0 | 1 | 1 | 1 |  | 0 | 1 |  | 1 | 1 | 0 | 1 | 0 | Growth Rate (Fibroblast; [4]): 0; Growth Rate (HEK-293T; [4]): 0; Growth Rate (HEK-293T; [5]): 0; Growth Rate (HEK-293T; [10]): 0; Growth Rate (U2OS; [2]): 0
8 | Cl.Clc1ccc(CCCOCCCN2CCCCC2)cc1 [PITOLISANT HYDROCHLORIDE] | 0 |  |  | 1 |  | 0 | 0 |  | 0 | 0 | 0 | 0 |  | 1 |  | 1 | 1 |  |  | 1 | 
9 | C[C@H](NC[C@H](O)CP(=O)(O)CC1CCCCC1)c1ccc(Cl)c(Cl)c1.Cl | 0 |  |  | 0 | 1 | 0 | 0 | 1 | 1 | 1 | 1 | 0 | 0 | 1 | 0 | 1 | 1 | 0 | 1 | 0 | Growth Rate (Fibroblast; [10]): 1; Growth Rate (HEK-293T; [5]): 0; Growth Rate (U2OS; [10]): 0
10 | Cc1ccccc1C(=O)Nc1ccc(C(=O)N2CCCC(O)c3cc(Cl)ccc32)c(C)c1 (stereo unspecified) [TOLVAPTAN] | 1 |  | 0 | 1 | 1 | 0 | 0 |  | 0 | 0 | 0 |  |  | 0 |  | 0 | 1 | 0 | 1 | 1 | Growth Rate (Fibroblast; [4]): 0; Growth Rate (Fibroblast; [10]): 0; Growth Rate (U2OS; [7]): 0
11 | Cl.Cl.Cl.c1ccc(N2CCN(Cc3nc4ccccc4[nH]3)CC2)nc1 | 0 |  | 1 | 1 | 1 | 0 | 1 |  | 1 | 1 | 0 | 0 | 0 | 1 |  | 1 | 1 |  |  |  | Growth Rate (Fibroblast; [4]): 1; Growth Rate (HEK-293T; [4]): 0
12 | S=C=Nc1cccc(NC(=S)NCCCCNC(=S)Nc2cccc(N=C=S)c2)c1 | 0 |  |  | 0 |  | 0 | 0 | 1 | 0 | 0 | 0 | 0 | 0 | 1 | 0 | 0 | 0 | 0 | 0 | 0 | 
13 | COc1cc(C(=O)NS(=O)(=O)c2ccccc2C)ccc1Cc1cn(C)c2ccc(NC(=O)OC3CCCC3)cc12 [ZAFIRLUKAST] | 0 | 0 | 0 | 0 | 0 |  | 1 |  | 1 | 1 | 1 | 0 | 1 | 1 |  | 1 | 1 | 1 | 0 | 1 | Growth Rate (HEK-293T; [4]): 0; Growth Rate (HEK-293T; [5]): 0; Growth Rate (HEK-293T; [10]): 0
14 | COc1cc(-c2cn([C@H]3CCc4ccccc4N(CC(F)(F)F)C3=O)nn2)ccc1-n1ccc(C)n1 |  |  | 0 | 0 |  | 1 | 0 |  | 0 | 0 | 0 | 0 |  | 0 | 1 | 0 | 0 | 0 | 0 | 1 | Growth Rate (Fibroblast; [2]): 0; Growth Rate (Fibroblast; [4]): 1; Growth Rate (U2OS; [7]): 0
15 | O=C(O)C1CN(Cc2ccc(OCc3ccc(Cl)c(Cl)c3)cc2)C1 | 1 |  |  | 0 |  | 0 | 0 |  | 0 | 0 | 0 | 0 | 0 | 1 | 0 | 0 | 1 | 0 | 0 | 0 | Growth Rate (U2OS; [10]): 0
16 | C[C@]1(C(=O)N(CCCC(=O)O)Cc2cccc(Cl)c2)CCN1C(=O)c1csc2ccccc12 [GLPG-0974] | 0 |  |  | 1 | 1 | 0 | 1 | 0 | 1 | 1 | 1 | 0 | 1 | 1 |  | 1 | 1 | 0 | 0 | 1 | Growth Rate (Fibroblast; [2]): 1; Growth Rate (HEK-293T; [4]): 0; Growth Rate (HEK-293T; [5]): 0; Growth Rate (HEK-293T; [10]): 0
17 | O=C(O)CC/C=C\C[C@@H]1CO[C@H](c2ccccc2Cl)O[C@@H]1c1ccccc1O | 0 | 0 |  | 1 | 0 |  | 1 | 0 | 1 | 1 | 1 | 0 | 0 | 1 | 0 | 0 | 1 | 1 | 1 | 1 | Growth Rate (HEK-293T; [4]): 0; Growth Rate (U2OS; [10]): 0
18 | CCOC(=O)CCNc1cc(N2CCc3ccccc3CC2)nc(-c2cccnc2)n1 |  | 0 | 0 | 1 |  | 1 | 0 |  | 0 | 0 | 0 |  |  | 1 | 0 | 1 | 1 | 1 | 1 | 1 | Growth Rate (Fibroblast; [2]): 1; Growth Rate (U2OS; [2]): 0; Growth Rate (U2OS; [7]): 1; Growth Rate (U2OS; [5]): 0; Growth Rate (U2OS; [10]): 0
19 | O=C(Nc1ccc(Oc2ccc(F)cc2)cc1)N1CCc2ncccc2[C@H]1c1ccc(F)cc1 [BAY-897] | 0 | 0 |  | 1 | 0 |  | 0 |  | 0 | 0 | 0 | 0 |  | 1 |  | 1 | 1 | 1 | 1 | 1 | 
